Results as given in patent US20090192204A1, “N-(2-THIAZOLYL)-AMIDE DERIVATIVES AS GSK-3 INHIBITORS” (NOSCIRA, S.A., priority 2006, published 2009).

Assays:
[1] = tested on: phosphorylated human Tau [pS396]; test: Inhibition of tau phosphorylation in SHSY5Y cells (Tau [pS396] sandwich ELISA); assay type: cell-based; set-up: key: “NEG” means no tau phosphorylation inhibition was detected at the referred concentration of compound (I); “POS” means that at the referred concentration tau phosphorylation inhibition was detected; conditions: 18 h
Procedure: Human neuroblastoma SHSY5Y cells were seeded in the presence of Minimum Essential Medium/Nutrient Mixture F-12. One day later, cells are treated with samples for 18 h at 37° C. After treatment, cultures are washed with phosphate-buffered saline and lysed for 30 min at 4° C. in extraction buffer (10 mM Tris-HCl, pH 7.4, 100 mM NaCl, 1 mM EDTA, 2 mM Na3VO4, 1% Triton X-100, 10% glycerol, 0.1% SDS, 0.5% Sodium deoxycholate, 1 mM PMSF and a protease inhibitor cocktail (Roche, Cat 1 697 498)).
The quantitative determination of phosphorylated human Tau is made taking aliquots of the cell lysate and using a phosphorylation-specific antibody against Tau [pS396] in a sandwich ELISA (Biosource, Cat KHB7031). Tau phosphorylation is estimated by measuring the absorbance at 450 nm in a microtiter plate reader (Cultek, Anthos 2010).
The effect of the synthesized compounds according to examples 1-7 and that of another 6 compounds of formula (I) is determined at different final concentrations, namely 50, 100 and 200 μM. Not all the compounds of formula (I) were tested at all the concentrations. The results are indicated in Table 1 (see below) as “NEG” and “POS”, respectively meaning “negative” and “positive”; “NEG” means no tau phosphorylation inhibition was detected at the referred concentration of compound (I); “POS” means that at the referred concentration tau phosphorylation inhibition was detected.

SH-SY5Y cells = test: Cell survival by LDH release in SH-SY5Y cells; assay type: cell-based
Procedure: In addition to tau phosphorylation assays, quantification of cell death due to potential toxicity of compounds 1, 4, 5, 7, 8, 9, 10 and 11 described above is made by measuring LDH release (Roche, Cat 1 644 793). For the quantitative determination of cell survival, aliquots of the cell lysate are incubated with an equal volume of reaction mixture at room temperature for 20-30 min. The measure of absorbance is made in a microtiter plate reader with 490-492 nm filter (Cultek, Anthos 2010).
For compounds 4 and 5, the cell survival was measured at 24 hours treatment (see Table 2), and for compounds 1, 7, 8, 9, 10 and 11 was measured at 18 hours treatment (see Table 3), in SH-SY5Y cells. It is generally considered that a compound is considered toxic if less than 80% of the cells survive after treatment with a compound.

[2] = molecular target: T1, Recombinant human glycogen synthase kinase 3β (Homo sapiens, UniProt P49841); test: GSK-3β inhibition (radiometric kinase assay, GS-2 peptide, 33P-ATP); assay type: biochemical; conditions: 0.5 h, remaining GSK-3 activity; for remaining activity at 25 µM: compound 25 μM; for remaining activity at 50 µM: compound 50 μM
T1 construct: purchased Upstate 14-306
T1 sequence (P49841 whole entry): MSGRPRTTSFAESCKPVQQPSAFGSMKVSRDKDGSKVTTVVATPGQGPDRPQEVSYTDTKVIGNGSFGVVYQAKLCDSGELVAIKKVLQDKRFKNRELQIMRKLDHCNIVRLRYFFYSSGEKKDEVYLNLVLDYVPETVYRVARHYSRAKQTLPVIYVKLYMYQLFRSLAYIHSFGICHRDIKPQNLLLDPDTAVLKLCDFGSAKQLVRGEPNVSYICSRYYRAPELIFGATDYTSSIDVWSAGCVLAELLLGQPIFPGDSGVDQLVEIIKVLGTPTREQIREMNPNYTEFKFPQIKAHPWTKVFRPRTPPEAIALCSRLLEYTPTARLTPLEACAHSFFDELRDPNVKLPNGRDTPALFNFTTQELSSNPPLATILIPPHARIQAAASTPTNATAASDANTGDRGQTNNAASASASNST
Procedure: This assay is based on the protocol detailed by Upstate Cat. 14-306, making some slight modifications.
Recombinant human glycogen synthase kinase 3β is assayed in MOPS 11 mM pH7.4, EDTA 0.2 mM, EGTA 1.25 mM, MgCl2 26.25 mM and sodium orthovanadate 0.25 mM in the presence of 62.5 μM of Phospho-Glycogen Synthase Peptide-2 (GS-2) (TOCRIS, Cat. 1352), 0.5 μCi γ-^33P-ATP and unlabelled ATP (Sigma, A-9187) at a final concentration of 12.5 μM. After incubation for 30 minutes at 30° C., aliquots are spotted onto P81 phosphocellulose papers. Filters are washed four times for at least 10 minutes each with 1% phosphoric acid and counted with scintillation cocktail in a scintillation counter (PerkinElmer, Microbeta 1450). The activity of GSK-3 is tested at concentrations of 25 and 50 μM, in the presence of the compounds synthesized according to examples 1 to 7 and in the presence of another 6 compounds of formula (I).The results obtained are indicated in Table I (see below), in the form of percentage of GSK-3 activity.

Compound | Tau phosphorylation inhibition in cells ([1]; 50 μM) | Tau phosphorylation inhibition in cells ([1]; 100 μM) | Tau phosphorylation inhibition in cells ([1]; 200 μM) | % of cell viability (SH-SY5Y cells; 10 μM, 24 hours treatment) [%] | % of cell viability (SH-SY5Y cells; 25 μM, 24 hours treatment) [%] | remaining activity at 25 µM [2] [%] | remaining activity at 50 µM [2] [%] | % of cell viability (SH-SY5Y cells; 50 μM, 18 hours treatment) [%] | % of cell viability (SH-SY5Y cells; 100 μM, 18 hours treatment) [%]
O=C(CCc1c[nH]c2ccccc12)Nc1ncc([N+](=O)[O-])s1 [Compound 5] | POS | POS | POS | 87.8 ± 3.8 | 86.1 ± 18.4 | 19.1 | 12.4 | – | –
COc1ccc2[nH]cc(CC(=O)Nc3ncc([N+](=O)[O-])s3)c2c1 [Compound 7, 2-(5-Methoxy-indol-3-yl)-N-(5-nitro-thiazol-2-yl)-acetamide] | NEG | POS | – | – | – | 43.9 | 32.2 | 99.8 ± 8.6 | 92.9 ± 11.1
Cn1cc(CC(=O)Nc2ncc([N+](=O)[O-])s2)c2ccccc21 [Compound 8, 2-(1-Methyl-indol-3-yl)-N-(5-nitro-thiazol-2-yl)-acetamide] | POS | POS | – | – | – | 17.8 | 9.27 | 103 ± 7.7 | 85.5 ± 6.5
O=C(Cc1c[nH]c2ccccc12)Nc1ncc([N+](=O)[O-])s1 [Compound 4, 2-(Indol-3-yl)-N-(5-nitro-thiazol-2-yl)-acetamide] | NEG | POS | POS | 91.7 ± 1.9 | 90 ± 3.7 | 6.29 | 8.51 | – | –
O=C(Nc1ncc([N+](=O)[O-])s1)c1n[nH]c2ccccc12 [Compound 11, 1H-Indazole-3-carboxylic Acid (5-nitro-thiazol-2-yl)-amide] | NEG | NEG | – | – | – | 34.8 | 18.2 | 95.3 ± 3.3 | 93.9 ± 5.6
O=C(CCCc1c[nH]c2ccccc12)Nc1ncc([N+](=O)[O-])s1 [Compound 1] | NEG | NEG | NEG | – | – | 37.4 | 18.9 | 103.2 ± 17 | 101.0 ± 17
O=C(CCCc1c[nH]c2ccccc12)Nc1nccs1 [Compound 2] | – | – | – | – | – | 59.6 | 39 | – | –
COc1ccc2[nH]c(C(=O)Nc3ncc([N+](=O)[O-])s3)cc2c1 [Compound 10, 5-Methoxy-indole-2-carboxylic Acid (5-nitro-thiazol-2-yl)-amide] | POS | POS | – | – | – | 18.9 | 11 | 84.7 ± 2.7 | 90.6 ± 7.2
O=C(Nc1ncc([N+](=O)[O-])s1)c1c[nH]c2ccccc12 [Compound 3] | – | – | – | – | – | 73.8 | 53.4 | – | –
Cc1cnc(NC(=O)Cc2c[nH]c3ccccc23)s1 [Compound 12] | – | – | – | – | – | 49.1 | 37.1 | – | –
O=C(Cc1c[nH]c2ccccc12)Nc1nccs1 [Compound 13] | – | – | – | – | – | 70.9 | 42.7 | – | –
O=C(Cc1c[nH]c2ccccc12)Nc1ncc(Cl)s1 [Compound 6] | – | – | – | – | – | 29.4 | 14.6 | – | –
Cc1[nH]c2ccccc2c1CC(=O)Nc1ncc([N+](=O)[O-])s1 [Compound 9, 2-(2-Methyl-indol-3-yl)-N-(5-nitro-thiazol-2-yl)-acetamide] | POS | POS | – | – | – | 7.96 | 2.61 | 91.6 ± 5.9 | 90.8 ± 5.5
